Measurements reported in ChEMBL document CHEMBL3885861, “Open TG-GATES”.

Organism: Rattus norvegicus
Test: Open TG-GATES - Regimen: Daily Repeat
Type: toxicity, organism-based, Sprague-Dawley
Set-up: regimen Daily Repeat, gender Male, age 6 weeks
Conditions: in vivo, po, 300 mg/kg, route gavage, dose level Middle; for APTT / Bas / Eos / Fbg / Hb / Ht / Lym / MCH / MCHC / MCV / Mono / Neu / PT / Plat / RBC / Ret / WBC: tissue Blood; for KIDNEY_L / KIDNEY_R / KIDNEY_TOTAL: tissue Kidney; for LIVER: tissue Liver; for A/G / ALP / ALT / AST / BUN / CRE / Ca / Cl / DBIL / GLC / IP / K / LDH / Na / PL / RALB / TBIL / TC / TG / TP / gamma-GTP: tissue Plasma

CCOC(=O)CCC(=O)O[C@H]1[C@H](O[C@@H]2[C@@H](C)[C@H](O[C@H]3C[C@@](C)(OC)[C@@H](O)[C@H](C)O3)[C@@H](C)C(=O)O[C@H](CC)[C@@](C)(O)[C@H](O)[C@@H](C)C(=O)[C@H](C)C[C@@]2(C)O)O[C@H](C)C[C@@H]1N(C)C [ERYTHROMYCIN ETHYLSUCCINATE]
TERMINAL_BW (72 h, time 3 day): 237.7 g | APTT (72 h, time 3 day): 21.3 s | Bas (72 h, time 3 day): 0% | Eos (72 h, time 3 day): 1% | Fbg (72 h, time 3 day): 311.6 mg/dL | Hb (72 h, time 3 day): 13.5 g/dL | Ht (72 h, time 3 day): 39.3% | Lym (72 h, time 3 day): 83.2% | MCH (72 h, time 3 day): 21.5 pg | MCHC (72 h, time 3 day): 34.4% | MCV (72 h, time 3 day): 62.7 fL | Mono (72 h, time 3 day): 3% | Neu (72 h, time 3 day): 11.8% | PT (72 h, time 3 day): 15.8 s | Plat (72 h, time 3 day): 114.1 x10_4/uL | RBC (72 h, time 3 day): 627.6 x10_4/ul | Ret (72 h, time 3 day): 5.1% | WBC (72 h, time 3 day): 94.1 x10_2/uL | KIDNEY_L (72 h, time 3 day): 1 g | KIDNEY_R (72 h, time 3 day): 1 g | KIDNEY_TOTAL (72 h, time 3 day): 2 g | LIVER (72 h, time 3 day): 10.9 g | A/G (72 h, time 3 day): 1.2 | ALP (72 h, time 3 day): 1728.8 IU/L | ALT (72 h, time 3 day): 44 IU/L | AST (72 h, time 3 day): 76 IU/L | BUN (72 h, time 3 day): 18.6 mg/dL | CRE (72 h, time 3 day): 0.2 mg/dL | Ca (72 h, time 3 day): 10.4 mg/dL | Cl (72 h, time 3 day): 108 meq/L | DBIL (72 h, time 3 day): 0 mg/dL | GLC (72 h, time 3 day): 192.6 mg/dL | IP (72 h, time 3 day): 7.3 mg/dL | K (72 h, time 3 day): 4.2 meq/L | LDH (72 h, time 3 day): 261 IU/L | Na (72 h, time 3 day): 141.2 meq/L | PL (72 h, time 3 day): 133.8 mg/dL | RALB (72 h, time 3 day): 3 g/dL | TBIL (72 h, time 3 day): 0.016 mg/dL | TC (72 h, time 3 day): 72.2 mg/dL | TG (72 h, time 3 day): 100.6 mg/dL | TP (72 h, time 3 day): 5.5 g/dL | gamma-GTP (72 h, time 3 day): 1.4 IU/L | TERMINAL_BW ([…], time 7 day): 269.9 g | TERMINAL_BW ([…], time 14 day): 321.9 g | TERMINAL_BW ([…], time 28 day): 391.2 g | APTT ([…], time 7 day): 22.2 s | Bas ([…], time 7 day): 0% | Eos ([…], time 7 day): 1% | Fbg ([…], time 7 day): 331.6 mg/dL | Hb ([…], time 7 day): 13.7 g/dL | Ht ([…], time 7 day): 40.6% | Lym ([…], time 7 day): 84.8% | MCH ([…], time 7 day): 20.9 pg | MCHC ([…], time 7 day): 33.6% | MCV ([…], time 7 day): 62.3 fL | Mono ([…], time 7 day): 2.2% | Neu ([…], time 7 day): 11.2% | PT ([…], time 7 day): 16.3 s | Plat ([…], time 7 day): 120.3 x10_4/uL | RBC ([…], time 7 day): 653 x10_4/ul | Ret ([…], time 7 day): 6.3% | WBC ([…], time 7 day): 86.1 x10_2/uL | APTT ([…], time 14 day): 22.1 s | Bas ([…], time 14 day): 0% | Eos ([…], time 14 day): 1% | Fbg ([…], time 14 day): 335.6 mg/dL | Hb ([…], time 14 day): 14.1 g/dL | Ht ([…], time 14 day): 40.7% | Lym ([…], time 14 day): 87.4% | MCH ([…], time 14 day): 20.5 pg | MCHC ([…], time 14 day): 34.7% | MCV ([…], time 14 day): 58.9 fL | Mono ([…], time 14 day): 2.2% | Neu ([…], time 14 day): 8.2% | PT ([…], time 14 day): 16.1 s | Plat ([…], time 14 day): 116 x10_4/uL | RBC ([…], time 14 day): 690 x10_4/ul | Ret ([…], time 14 day): 4.9% | WBC ([…], time 14 day): 110.3 x10_2/uL | APTT ([…], time 28 day): 24.1 s | Bas ([…], time 28 day): 0% | Eos ([…], time 28 day): 1.2% | Fbg ([…], time 28 day): 339.2 mg/dL | Hb ([…], time 28 day): 15.6 g/dL | Ht ([…], time 28 day): 45.3% | Lym ([…], time 28 day): 85.4% | MCH ([…], time 28 day): 19 pg | MCHC ([…], time 28 day): 34.3% | MCV ([…], time 28 day): 55.3 fL | Mono ([…], time 28 day): 2.4% | Neu ([…], time 28 day): 9.2% | PT ([…], time 28 day): 16 s | Plat ([…], time 28 day): 99.2 x10_4/uL | RBC ([…], time 28 day): 819.8 x10_4/ul | Ret ([…], time 28 day): 2.5% | WBC ([…], time 28 day): 96.8 x10_2/uL | KIDNEY_L ([…], time 7 day): 1.1 g | KIDNEY_R ([…], time 7 day): 1.1 g | KIDNEY_TOTAL ([…], time 7 day): 2.2 g | KIDNEY_L ([…], time 14 day): 1.3 g | KIDNEY_R ([…], time 14 day): 1.3 g | KIDNEY_TOTAL ([…], time 14 day): 2.6 g | KIDNEY_L ([…], time 28 day): 1.4 g | KIDNEY_R ([…], time 28 day): 1.4 g | KIDNEY_TOTAL ([…], time 28 day): 2.9 g | LIVER ([…], time 7 day): 12.2 g | LIVER ([…], time 14 day): 13.9 g | LIVER ([…], time 28 day): 15.4 g | A/G ([…], time 7 day): 1.2 | ALP ([…], time 7 day): 1819.6 IU/L | ALT ([…], time 7 day): 42.4 IU/L | AST ([…], time 7 day): 70.4 IU/L | BUN ([…], time 7 day): 19 mg/dL | CRE ([…], time 7 day): 0.2 mg/dL | Ca ([…], time 7 day): 10.6 mg/dL | Cl ([…], time 7 day): 107.6 meq/L | DBIL ([…], time 7 day): 0 mg/dL | GLC ([…], time 7 day): 194.6 mg/dL | IP ([…], time 7 day): 7.3 mg/dL | K ([…], time 7 day): 4.1 meq/L | LDH ([…], time 7 day): 185.6 IU/L | Na ([…], time 7 day): 142 meq/L | PL ([…], time 7 day): 148.2 mg/dL | RALB ([…], time 7 day): 3 g/dL | TBIL ([…], time 7 day): 0.002 mg/dL | TC ([…], time 7 day): 76 mg/dL | TG ([…], time 7 day): 123.6 mg/dL | TP ([…], time 7 day): 5.5 g/dL | gamma-GTP ([…], time 7 day): 1.6 IU/L | A/G ([…], time 14 day): 1.1 | ALP ([…], time 14 day): 1368.6 IU/L | ALT ([…], time 14 day): 35 IU/L | AST ([…], time 14 day): 70.2 IU/L | BUN ([…], time 14 day): 19.4 mg/dL | CRE ([…], time 14 day): 0.2 mg/dL | Ca ([…], time 14 day): 10.4 mg/dL | Cl ([…], time 14 day): 107.6 meq/L | DBIL ([…], time 14 day): 0 mg/dL | GLC ([…], time 14 day): 206.6 mg/dL | IP ([…], time 14 day): 7.2 mg/dL | K ([…], time 14 day): 4 meq/L | LDH ([…], time 14 day): 157.8 IU/L | Na ([…], time 14 day): 141.8 meq/L | PL ([…], time 14 day): 146.8 mg/dL | RALB ([…], time 14 day): 2.9 g/dL | TBIL ([…], time 14 day): 0.01 mg/dL | TC ([…], time 14 day): 79.8 mg/dL | TG ([…], time 14 day): 105.2 mg/dL | TP ([…], time 14 day): 5.5 g/dL | gamma-GTP ([…], time 14 day): 1.6 IU/L | A/G ([…], time 28 day): 1.1 | ALP ([…], time 28 day): 1061.2 IU/L | ALT ([…], time 28 day): 36.8 IU/L | AST ([…], time 28 day): 59.2 IU/L | BUN ([…], time 28 day): 19.6 mg/dL | CRE ([…], time 28 day): 0.2 mg/dL | Ca ([…], time 28 day): 10.5 mg/dL | Cl ([…], time 28 day): 106.4 meq/L | DBIL ([…], time 28 day): 0 mg/dL | GLC ([…], time 28 day): 203.4 mg/dL | IP ([…], time 28 day): 6.9 mg/dL | K ([…], time 28 day): 4 meq/L | LDH ([…], time 28 day): 130.6 IU/L | Na ([…], time 28 day): 141.4 meq/L | PL ([…], time 28 day): 151.8 mg/dL | RALB ([…], time 28 day): 3.1 g/dL | TBIL ([…], time 28 day): 0.014 mg/dL | TC ([…], time 28 day): 78.2 mg/dL | TG ([…], time 28 day): 140 mg/dL | TP ([…], time 28 day): 5.8 g/dL | gamma-GTP ([…], time 28 day): 2.2 IU/L
